Consider twelve molecules from patent US5306721A (priority 1990, dated 1994).

For assay [1], the system named is effector T lymphocyte activity (contact hypersensitivity). Put plainly: Percutaneous test for detecting delayed contact hypersensitivity (contact dermatitis) after DNFB immunization. It counts as in vivo, guinea pig. As to conditions: Cavia porcellus, Control: 100, oral 2 mg/kg daily. An excerpt:
1.1 Percutaneous test for detecting contact hypersensitivity
The epicutaneous application of dinitrofluorobenzene (DNFB) led to the development of a delayed hypersensitivity in guinea pigs and mice, an immune status, which is linked to the clonal reproduction of antitrinitrophenyl (TNP)-specific T lymphocytes (TDTH -ly). If, after a latency period of at least 5 days, there is a renewed application of DNFB, lymphokines are released through the reaction with the TDTH -ly of this region of the skin and thus lead to a locally limited inflammatory reaction.
Seven days after the immunization with 1% DNFB, the sides of the experimental animals were depilated and tested by the application of one drop each of the 0.5%, 0.1%, 0.05, 0.025% and 0.01% DNFB solution. […] The test results are obtained from the severity and number of the positive skin reactions, and the stimulation index (SI) is obtained from the comparison of test animals and control animals.
The test substance is orally administered. A daily dose of 2 mg/kg of body weight, as an aqueous suspension, was administered daily by a stomach tube. Duration of treatment: 1 day+1 (one day after the immunization), up to +6. The control animals received only the lactose content of the composition.
(§1) The degree of sensitization in percent and the concentration of serum antibodies expressed as antibody titer difference is compared below to the respective control group (screening values).
(§2) A contact dermatitis value of 120 or more, i.e. corresponding to an at least 20% increase compared to the control, or of less than 80 are taken as proof of a stimulatory or suppressor effect, respectively. Antibody values of >+1 or <-1 illustrate the stimulatory or suppressor effect, respectively, of the substances on the humoral response.

Assay [2] has as its system DNP-specific serum antibodies. The assay can be described thus: Takatsy test for DNP-specific serum antibodies (humoral immune response). The note with it: difference to control group; blood taken 14 days after DNFB. In kind it is in vivo, guinea pig. The method, then: After immunization with DNFB, dinitrophenyl (DNP)-specific humoral antibodies, which preferentially belong to the IgG1 substance class, are developed in guinea pigs. Blood was taken from the experimental animals by puncture of the heart fourteen days after the primary epicutaneous application of DNFB. The antibody (AB) concentration was determined according to the method described by G. Takatsy: A New Method for the Preparation of Serial Dilutions in a Quick and Accurate Way, (Kiserletes Orvostudomany, Hungary, Vol. 2, 1950, pp. 263-396). TNP-laden sheep erythrocytes were used as indicator cells coupled according to Rittenberg and Pratt (M. B. Rittenberg, and K. L. Pratt, Antitrinitrophenyl Plaque Assay. Primary Response of BALB/c Mice to Soluble and Particulate Immunogen, Proc. Soc. Exp. Biol. Med., Vol. 132, 1969, pp. 575-579).
as §1, §2

Assay [3] deals with SE-specific rosette-forming cells (RFC). The assay can be described thus: Rosette test (SE-specific rosettes). As to conditions: oral administration. It counts as in vivo, mouse (inbred CBA strain). The method, then: The testing of immunostimulatory effects was also conducted on the mouse (inbred CBA strain) by detection through the plaque test for detecting SE (sheep erythrocyte) -specific immunoglobulin M (IgM) and immunoglobulin G (IgG) PFC (plaque forming cells), and by the rosette test.
2.2 Rosette Test (SE-specific rosettes)
According to Burnet's Theory, lymphocytes carry immunoglobulin receptors on their surface. These receptors are directed against a particular antigen and are detectable by a reaction with the specific antigen. The determination of the number of rosette-forming cells (RFC) can serve as a measure of the strength of an incipient immune reaction and consequently also reproduce the effects of a suppression or stimulation of cell-proliferative processes.
Three days after the intravenous immunization with 2×10^5 SE in 0.2 ml physiological salt solution, the experimental animals were killed by hyperdistention, the spleen was removed and, after addition of Parker medium at pH 7.4, rubbed through Muller gauze. The work to recover the cell suspension was carried out in an ice-cooled water bath from about 0° C. to about 4° C. The determination of the cell density was carried out in a Neubauer counting chamber. Next, the cell count was adjusted to 1×10^7 nuclei-containing cell (NCC) per ml of medium, a count that was kept constant for all experimental formulations. Of this spleen cell suspension (1×10^7 NCC/ml), 0.9 ml were then mixed with 0.1 ml of a 5% washed SE suspension and incubated for 24 hours at 4° C. An NCC, which was surrounded by at least 4 erythrocytes and was identifiable, was rated as a rosette.

The mark [4] stands for this setting: 24 h, day +1 to +6, read-out: Contact dermatitis, 24-hour reaction.
Where [5] appears, read: 48 h, day +1 to +6, read-out: Contact dermatitis, 48-hour reaction.

SMILES strings stand for the structures. Where two headings read alike, the source gives them in different places.

As for `COc1cc2[nH]c(=O)n(CCS)c(=O)c2cc1OC` [Example 3, 3-(2-mercapto-ethyl)-6,7-dimethoxy-quinazoline-2,4(1H,3H)-dione], the response vs control in vivo at 2 mg/kg in assay [1] (setting [4]) is 100%. Besides, in assay [2], the “DNP-specific antibodies (antibody titer difference)” value was “+1.0”.
Regarding `Cc1ccc2[nH]c(=O)n(CCCS)c(=O)c2c1` [Example 12, 6-methyl-3-(3-mercapto-propyl)-quinazoline-2,4(1H,3H)-dione], the response vs control in vivo at 2 mg/kg in assay [1] (setting [4]) amounted to 120%; in assay [1] (setting [5]) it was 130%. Also, the “DNP-specific antibodies (antibody titer difference)” value in assay [2] is given as “+0.3”.
In the case of `O=c1[nH]c2ccc(F)cc2c(=O)n1CCS` [Example 14c, 6-Fluoro-3-(2-mercapto-ethyl)-quinazoline-2,4(1H,3H)-dione], the response vs control in vivo at 2 mg/kg in assay [1] (setting [4]) is 90%; in assay [1] (setting [5]) it was 105%.
Turning to `O=c1[nH]c2ccc(Br)cc2c(=O)n1CCCS` [Example 14b, 6-Bromo-3-(3-mercapto-propyl)-quinazoline-2,4(1H,3H)-dione], the response vs control in vivo at 2 mg/kg in assay [1] (setting [4]) turned out to be 105%; in assay [1] (setting [5]) it was 100%. Moreover, the “DNP-specific antibodies (antibody titer difference)” value in assay [2] was “+2.2”.
Consider `COc1cc2[nH]c(=O)n(CC(C)S)c(=O)c2cc1OC` (stereo not drawn) [Example 14e, 6,7-Dimethoxy-3-(2-mercapto-propyl)-quinazoline-2,4(1H,3H)-dione], for which, in assay [3], the “production of SE-specific rosette-forming cells” value is recorded as “significant production of SE-specific rosette-forming cells”. For the same molecule, the response vs control in vivo at 2 mg/kg in assay [1] (setting [4]) is 100%.
As for `CC(S)Cn1c(=O)[nH]c2ccccc2c1=O` (stereo not drawn) [Example 7, 3-(2-mercapto-propyl)-quinazoline-2,4(1H,3H)-dione], in assay [1] (setting [4]), the response vs control in vivo at 2 mg/kg amounted to 230%. Also, the “DNP-specific antibodies (antibody titer difference)” value in assay [2] is reported as “+1.8”.
For `O=c1[nH]c2ccc(Cl)cc2c(=O)n1CCS` [Example 13, 6-chloro-3-(2-mercapto-ethyl)-quinazoline-2,4(1H,3H)-dione], the figures for the response vs control in vivo at 2 mg/kg in assay [1] (setting [4]) and in assay [1] (setting [5]) were 120% and 130%, respectively.
The corresponding values for `CC(S)Cn1c(=O)[nH]c2ccc(F)cc2c1=O` (stereo not drawn) [Example 14d, 6-Fluoro-3-(2-mercapto-propyl)-quinazoline-2,4(1H,3H)-dione] are 100% and 150%.
Regarding `O=c1[nH]c2ccc(Cl)cc2c(=O)n1CCCS` [Example 8, 6-chloro-3-(3-mercapto-propyl)-quinazoline-2,4(1H,3H)-dione], the response vs control in vivo at 2 mg/kg in assay [1] (setting [4]) worked out at 100%; in assay [1] (setting [5]), 115%.
For `O=c1[nH]c2ccc(Br)cc2c(=O)n1CCS` [Example 5, 6-bromo-3-(2-mercaptoethyl)-quinazoline-2,4(1H,3H)-dione], the response vs control in vivo at 2 mg/kg in assay [1] (setting [4]) was 150%; in assay [1] (setting [5]), 120%. The “DNP-specific antibodies (antibody titer difference)” value in assay [2] was -0.6.
For `Cc1ccc2[nH]c(=O)n(CCS)c(=O)c2c1` [Example 14a, 6-Methyl-3-(2-mercapto-ethyl)-quinazoline-2,4(1H,3H)-dione] the same measures were 60%, 60% and -1.9.
For `O=c1[nH]c2ccccc2c(=O)n1CCCS` [Example 6, 3-(3-Mercapto-propyl)-quinazoline-2,4(1H,3H)-dione], the “production of SE-specific rosette-forming cells” value in assay [3] was “significant production of SE-specific rosette-forming cells”. In addition, the response vs control in vivo at 2 mg/kg in assay [1] (setting [4]) stood at 70%; in assay [1] (setting [5]), 40%. Besides, the “DNP-specific antibodies (antibody titer difference)” value in assay [2] was -1.5.
